# Source: the supplement of paper PMC10307832
# Tests used:
# Test in all cases: relative viability (nuclei count vs DMSO), 5 days (fraction); higher = more cells survive
# [1] = compound: Cc1ccc(C(=O)Nc2cccc(C(F)(F)F)c2)cc1Nc1cncc(C(N)=O)c1 [ALW-II-49-7]
# In short: (§1)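 Nuclei counted with MetaXpress define viability as the ratio of treated to vehicle wells, given as a median across plates. The lung cancer cell lines were in 1536-well plates, pinned with five √10-spaced library-drug doses and imaged at 4× after 5 days and Hoechst staining. Plates passed with control CV below 25% and at least one doubling.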
# [2] = compound: Cc1nc(Nc2ncc(C(=O)Nc3c(C)cccc3Cl)s2)cc(N2CCN(CCO)CC2)n1 [Dasatinib]
# In short: as §1
# [3] = compound: C1CC1C(=O)NC2=NNC3=C2C=CC(=C3)C4=CC(=CC=C4)C(=O)NC5CC5 [XMD13-2]
# In short: as §1
Cell Line,relative viability ([1]; 0.08 µM),relative viability ([1]; 0.253 µM),relative viability ([1]; 0.8 µM),relative viability ([1]; 2.53 µM),relative viability ([1]; 8 µM),relative viability ([2]; 0.005 µM),relative viability ([2]; 0.01581 µM),relative viability ([2]; 0.05 µM),"relative viability ([2]; 0.075 µM, anchor plate)",relative viability ([2]; 0.1581 µM),relative viability ([2]; 0.5 µM),relative viability ([3]; 0.05 µM),relative viability ([3]; 0.1581 µM),relative viability ([3]; 0.5 µM),relative viability ([3]; 1.581 µM),relative viability ([3]; 5 µM)
NCI-H522,0.968,0.938,0.994,1.2,1.03,0.964,0.829,0.801,0.904,0.768,0.758,1.08,1.03,0.935,0.918,0.745
LCLC-103H,0.983,0.987,0.971,0.953,0.969,0.997,0.855,0.82,0.475,0.669,0.382,1.09,0.997,0.969,0.987,1.05
HCC-827,1.02,1.03,1.02,1.02,1.02,1.05,0.926,1.04,0.324,0.953,0.126,1.06,1.01,1.02,0.973,0.944
NCI-H322M,0.879,1.08,0.957,0.906,0.805,0.892,0.827,0.526,0.257,0.319,0.216,1.05,0.918,0.893,0.911,1.08
NCI-H1666,0.988,0.943,0.92,1.24,1.04,0.995,1,1.02,0.851,0.829,0.478,1.05,1.05,0.997,0.994,0.964
NCI-H1563,0.962,0.993,0.957,0.941,0.887,0.901,0.703,0.735,0.465,0.619,0.584,1.07,1.03,1.09,0.966,1.06
NCI-H1793,0.984,0.894,0.757,0.836,0.934,0.635,0.543,0.537,0.391,0.457,0.414,1.27,0.721,1.07,0.977,1.12
NCI-H1437,0.985,0.989,0.973,0.994,0.947,1.05,1.05,1.04,0.443,0.887,0.348,0.984,0.992,1.02,0.941,1.06
NCI-H358,0.891,0.956,0.924,1.01,1.07,0.867,0.695,0.593,0.165,0.248,0.163,1.18,0.918,1.06,0.928,0.704
SW 900,0.826,0.975,0.736,1.03,0.622,0.67,0.733,0.647,0.701,0.405,0.254,0.96,0.765,0.924,0.741,1.03
NCI-H1792,0.679,0.873,0.915,0.73,0.654,0.844,0.773,0.643,0.827,0.653,0.277,1.09,0.907,0.925,0.808,1.12
NCI-H1355,0.939,0.963,0.953,0.957,0.928,1,0.83,0.998,0.731,0.781,0.582,1.12,0.961,0.995,0.949,1.02
SK-LU-1,1.04,1.11,1.07,0.769,0.746,0.823,0.542,0.42,0.174,0.312,0.25,1.07,1.03,1.19,1.05,0.924
NCI-H2228,1.09,0.783,0.735,0.904,0.85,0.994,0.869,0.94,0.535,0.645,0.442,1.16,0.99,1.27,1.06,1.17
NCI-H1623,0.934,0.903,0.947,0.967,0.91,0.97,0.851,0.935,0.542,0.767,0.564,0.948,1.03,0.879,0.89,0.965
IA-LM,0.939,0.74,0.744,0.504,0.305,1.01,0.994,1,–,0.781,0.564,0.967,0.982,0.977,0.87,0.883
NCI-H2170,1,0.969,0.973,0.908,0.966,0.961,0.914,0.784,0.61,0.585,0.378,1.03,0.954,0.986,1.01,0.881
NCI-H2347,1.05,0.968,1.04,0.973,0.949,0.913,0.838,0.659,0.314,0.452,0.333,1.05,1.02,1.06,1.08,0.935
A-427,0.962,1.02,0.952,1.01,0.93,0.983,0.889,0.811,0.698,0.634,0.623,1.12,0.921,1.01,0.904,0.744

Cell Line,relative viability ([1]; 0.08 µM),relative viability ([1]; 0.253 µM),relative viability ([1]; 0.8 µM),relative viability ([1]; 2.53 µM),relative viability ([1]; 8 µM),relative viability ([2]; 0.005 µM),relative viability ([2]; 0.01581 µM),relative viability ([2]; 0.05 µM),"relative viability ([2]; 0.075 µM, anchor plate)",relative viability ([2]; 0.1581 µM),relative viability ([2]; 0.5 µM),relative viability ([3]; 0.05 µM),relative viability ([3]; 0.1581 µM),relative viability ([3]; 0.5 µM),relative viability ([3]; 1.581 µM),relative viability ([3]; 5 µM)
HCC-366,1.03,1.05,1.09,1.04,0.855,0.805,0.748,0.608,0.682,0.728,0.52,1.08,0.918,0.991,0.979,1.03
HCC-78,0.972,0.938,0.842,0.934,0.933,0.551,0.764,0.721,0.408,0.658,0.314,1.06,0.934,0.981,0.908,0.962
PC-14,0.933,0.98,0.95,0.961,0.898,1.12,0.98,0.877,0.264,0.65,0.234,1.08,1.04,1.07,0.98,1.13
NCI-H2087,1.07,1.01,1.06,1.02,0.915,1.02,0.941,1.23,0.856,0.937,0.453,1.3,1.19,1.17,1.01,0.962
HOP-62,1.1,1.03,0.941,0.82,0.786,1.06,1,0.932,0.68,0.945,0.367,1.04,0.955,1.1,0.953,1.02
EKVX,1.06,0.953,0.968,0.91,0.974,0.932,0.879,0.807,0.605,0.68,0.176,1.08,0.915,0.969,0.923,1.07
EMC-BAC-2,1.02,0.966,0.888,0.902,0.758,0.884,0.786,0.657,0.336,0.472,0.344,1.13,0.896,1.02,0.616,0.79
EBC-1,0.93,0.93,0.79,1,0.697,1.03,0.893,0.894,–,0.831,0.736,1.07,1.09,1,0.858,0.508
HARA,0.87,0.777,0.987,1.17,0.846,0.797,0.73,0.647,0.288,0.3,0.175,1.13,0.95,0.963,0.943,1.12
LU99A,0.816,1.1,0.902,0.94,0.95,0.807,0.629,0.896,0.539,0.663,0.48,1.05,1.05,1.01,1.03,0.927
NCI-H1944,0.997,0.91,0.949,0.934,0.893,0.918,0.902,0.644,0.228,0.286,0.208,1.11,0.958,1.06,1.18,0.977
LK-2,1.03,0.971,1,–,0.926,0.943,0.569,0.587,0.311,0.297,0.257,1.24,0.904,1.05,0.915,0.966
NCI-H441,1.2,0.868,0.913,0.902,0.762,1.03,0.997,1.11,0.675,0.636,0.338,1.19,1.08,0.968,0.96,0.771
NCI-H23,0.936,0.978,0.907,1.06,0.865,0.923,0.857,0.858,0.866,0.6,0.482,1.04,0.907,1.04,0.801,1.07
NCI-H647,0.904,0.944,0.926,0.967,0.795,0.76,0.572,0.372,0.199,0.227,0.207,1.12,1.05,1.06,1.03,0.747
201T,0.979,1.04,0.915,1.02,0.838,0.991,0.766,0.82,0.583,0.602,0.417,1.02,1.03,1.02,1,1.02
NCI-H1299,1.05,1.05,0.938,0.921,0.843,1.04,0.996,0.998,–,0.886,0.263,0.984,1.04,1.05,1.04,1.09
NCI-H1734,0.933,1.04,1.01,0.886,0.822,0.863,0.772,0.777,0.481,0.508,0.51,1.1,0.848,1.03,0.869,0.748
NCI-H596,0.913,0.988,0.941,0.893,0.829,0.978,0.788,0.736,0.631,0.551,0.453,1.03,1.02,0.944,1.03,1.12
